Results published in US20070264411A1, “PROCESS OF PRODUCING A CAPSINOID-CONTAINING FOOD AND DRINK” (AJINOMOTO CO., INC., priority 2006, published 2007).

How the values were obtained:
Type in all cases: physicochemical
[1] = Storage stability of diluted dihydrocapsiate emulsion with added emulsifier DECAGLYN 1-O (HPLC capsinoid content)
Experimental: A dihydrocapsiate emulsion composition was prepared according to the method described in Example 1 of JP Patent Kokai Publication No. JP-P2003-192576A. Briefly, decaglycerin monooleate (Nikko Chemical Co.; trade name, DECAGLYN 1-O) (21 g), glycerin (193 g) and water (26 g) were mixed, dissolved under heating at 90-95° C., and cooled to 30° C. Synthetic dihydrocapsiate (8.5 g) and sucrose acetate isobutyrate (SAIB) (51 g) were added and dissolved under heating at 85-90° C., and the mixture was emulsified at 30-90° C. to prepare a capsinoid-containing emulsion composition (pH 3.6). The resulting emulsion composition was diluted with up to 1000 parts of 0.01M citrate buffer (pH 3.5) supplemented with sucrose to obtain an additive-free sample. On the other hand, the composition was diluted with up to 1000 parts of 0.01M citrate buffer (pH 3.5) supplemented with sucrose to which was added 0.014%, 0.114% emulsifier (Nikko Chemical Co.; DECAGLYN 1-0) respectively, to prepare emulsion-supplemented samples. The resulting samples were sterilized by heating for 20 minutes at 44° C. and stored.
Every one week after storage, the capsinoid content was determined. Analysis of the capsinoid content was performed by high performance liquid chromatography (HPLC) after dilution with an ethyl acetate/methanol (6:4) mixture.

[2] = Storage stability of diluted dihydrocapsiate emulsion with a variety of emulsifiers added; settings: 8 emulsifiers of Table 1 other than DECAGLYN 1-O, each at 0.114% in 0.01M citrate buffer (pH 3.5) with sucrose; 1000 parts dilution; FIG. 2
Experimental: In the same manner as in Example 1, a dihydrocapsiate containing emulsion composition was diluted with up to 1000 parts of 0.01M citrate buffer (pH 3.5) supplemented with sucrose and the stability of storage was evaluated. Prior to addition of the dihydrocapsiate containing emulsion composition 8 types of emulsifiers were added to 0.01M citrate buffer (pH 3.5) supplemented with sucrose so as to be 0.114%, and the difference of the stability as a function of the emulsifier added was evaluated.

[3] = Storage stability of diluted dihydrocapsiate emulsion with a variety of high molecular weight components added; settings: 500 parts dilution, FIG. 3
Experimental: In the same manner as in Example 2, a dihydrocapsiate containing emulsion composition was diluted with up to 500 parts of 0.01M citrate buffer (pH 3.5) supplemented with sucrose and the stability of storage was evaluated. Prior to addition of the dihydrocapsiate containing emulsion composition 8 types of high molecular weight components were added to 0.01M citrate buffer (pH 3.5) supplemented with sucrose, and the difference of the stability as a function of the high molecular weight components added was evaluated. […] In regard to the amount of high molecular weight component to be added, xanthan gum was reduced to 0.1% because it gives high viscosity in a small quantity. The amount of other high molecular weight components added than xanthan gum was fixed at 0.5%.

[4] = Storage stability of dihydrocapsiate emulsion mixed with emulsifier in advance or diluted with emulsifier-containing buffer; settings: stored at 24° C. and 44° C.
Experimental: Into a capsinoid emulsion composition prepared in Example 1 an emulsifier (Nikko Chemical Co., Decaglyn 1-O) was blended at a ratio of 10 to 3 under heating (50-70° C.) to prepare a composition. The resulting composition was diluted with up to 230 parts of 0.01M citrate buffer (pH 3.5) supplemented with sucrose to prepare a mixture of the emulsion composition and the emulsifier. On the other hand, an additive-free sample prepared by diluting the capsinoid emulsion composition (prepared in Example 1) with up to 300 parts of the same buffer was diluted with up to 300 parts of 0.01M citrate buffer (pH 3.5) supplemented with sucrose to which was added an emulsifier (Nikko Chemical Co., DECAGLYN 1-0) in advance at a rate of 0.10%, to prepare a sample containing an emulsifier. In either sample, the content of capsinoid after dilution with the buffer correspond to 0.33% of the initial amount of capsinoid existing in the emulsion composition. Thus prepared samples were sterilized under heat for 20 minutes and stored at 24° C. and 44° C.
In periodical sampling, the content of capsinoid was determined. The content of capsinoid was analyzed by high performance liquid chromatography (HPLC) after dilution with a mixture of ethyl acetate and methanol (6:4).

rate of residual dihydrocapsiate relative to emulsifier-free case ([1]; 0.114% emulsifier (DECAGLYN 1-O) added, about one month after storage, citrate buffer pH 3.5) [times] | stability of dihydrocapsiate during storage [2] | storage stability of dihydrocapsiate ([3]; HM pectin 0.5% in 0.01M citrate buffer (pH 3.5) with sucrose) | storage stability of dihydrocapsiate ([3]; carboxymethylcellulose sodium (CMC sodium) 0.5% in 0.01M citrate buffer (pH 3.5) with sucrose) | storage stability of dihydrocapsiate ([3]; carrageenan 0.5% in 0.01M citrate buffer (pH 3.5) with sucrose) | storage stability of dihydrocapsiate ([4]; FIG. 4A: emulsion composition diluted up to 300 parts with buffer to which 0.10% DECAGLYN 1-O was previously added) | storage stability of dihydrocapsiate ([4]; FIG. 4B: emulsion composition pre-blended with Decaglyn 1-O (10 to 3), diluted up to 230 parts with buffer containing no emulsifier) | Molecule | storage stability of dihydrocapsiate ([1]; emulsion composition diluted up to 1000 parts with 0.01M citrate buffer (pH 3.5) with sucrose, 0.014% or 0.114% DECAGLYN 1-O added vs additive-free, FIG. 1)
≥ 2 | improve the stability | Improvement of the storage stability | Improvement of the storage stability | Improvement of the storage stability | improves the storage stability | improves the storage stability | COc1cc(COC(=O)CCCCCCC(C)C)ccc1O [dihydrocapsiate] | 
 |  |  |  |  |  |  | dihydrocapsiate | increased with increase of the amount of emulsifier added
